The record followed here is patent publication US11690824B2, “Antibacterial compounds” (THE GENERAL HOSPITAL CORPORATION, priority 2018, dated 2023).

In the assay the test system is A. baumannii ATCC 17978. Briefly: MIC assay. It counts as cell-based, Acinetobacter baumannii. The note with it: Acinetobacter baumannii, ATCC17978; A. baumannii ATCC 17978; read-out: Minimum inhibitory concentration. From the text:
Bacterial strains, growth conditions, and persister isolation. Methicillin-resistant S. aureus strains, MW2 BAA-1707, ATCC 33591, and JE2, methicillin-susceptible S. aureus strains, NCTC 8325, Newman, and ATCC 29213, vancomycin-resistant S. aureus strain, VRS1, Enterococcus faecium E007, vancomycin-resistant E. faecium strains, C68,^7 WB312, and WC196, Klebsiella pneumoniae WGLW2 (BEI Resources, Manassas, Va., USA), Acinetobacter baumannii ATCC 17978, Pseudomonas aeruginosa PA14, and Enterobacter aerogenes ATCC 13048 were used to test antimicrobial activity (Table 1). S. aureus strains were grown in tryptic soy broth (TSB) (BD, Franklin Lakes, N.J., USA), and E. faecium was grown in brain-heart infusion (BHI) broth (BD, Franklin Lakes, N.J., USA) at 37° C. K. pneumoniae, A. baumannii, P. aeruginosa, and E. aerogenes were grown in Luria Bertani (LB) broth (BD, Franklin Lakes, N.J., USA) at 37° C.
Minimal inhibitory concentration (MIC) assay. The MICS of antibiotics were determined by the standard micro-dilution method recommended by the Clinical and Laboratory Standards Institute. MIC assays were conducted in biological triplicate.

With `O=C(O)c1c(Sc2ccccc2)c2cc(Cl)ccc2n1Cc1ccc(Cl)cc1` [nTZDpa], the MIC is more than 64 µg/mL.
